In patent US6706528B2, “Fluorescent magnesium indicators” (The United States of America as represented by the …, priority 2000, dated 2004):

Tests used:
[1] = UV absorption spectrum of the free indicator; type: physicochemical; details: buffer pH 7.2
Description: The emission and excitation fluorescence spectra of the compounds of the present invention (e.g., (1a-3a), (9a), (11a-13a), (15a), and (18a-24a)) were recorded using a 0.5 to 1.0 μM solution of the chelator buffered at pH 7.2. The solutions also contained 120 mM KCl and 20 mM NaCl to mimic the ionic strength of the intracellular medium. These solutions were titrated with stock solutions of MgCl2 containing an equimolar concentration of the 4-oxo-4H-quinolizine carboxylic acids to cancel out dilution effects during the titration. After each titration step, the emission and excitation fluorescence spectra were recorded. The apparent dissociation constants of indicators for Mg^2+ were determined from the fluorescence spectra as originally described by Grynkiewicz et al. (Grynkiewicz et al., J. Biol. Chem. 260: 3440-3450 [1985]).
In the following experiments, tetrahydrofuran (THF) was dried and distilled over sodium/benzophenone (Nalbenzophenone) prior to use. Dimethylformamide (DMF) was dried over molecular sieves (4 Å). Ethyl acetate, hexane, diethyl ether and all commercially available chemicals were used as received. After extractive work-up, the combined organic phases were dried on magnesium sulfate. Water used in the spectrophotometric and fluorescence experiments was filtered through a hydro PICOPURE® 2 filter. Thin layer chromatography was carried out on Sigma-Aldrich TLC plates (silica gel on polyester). Chromatographic purifications were done by flash chromatography using Merck Silica Gel, grade 9385, 230-400 mesh, 60 Å. Melting points were measured on a Fisher-Johns melting point apparatus and are shown uncorrected herein. ^1H-NMR spectra and ^13C-NMR spectra were recorded on a Nicolet NT 360 MHz NMR Spectrometer and a Varian UNITY plus 400 MHz NMR Spectrometer. Chemical shifts are reported in parts per million (δ), using tetramethylsilane (TMS) as the internal standard. The signals are expressed as an s (singlet), d (doublet), t (triplet), q (quartet), m (multiplet), or br (broad). High cresolution mass spectra were obtained from the Washington University Resources for Biomedical and Bio-organic Mass Spectrometry on samples which were chromatographically pure. Compounds (9a) and (21a) were analyzed by FABMS using NBA Li matrix. UV absorption spectra were recorded with a Bechman DU 650 Spectrophotometer using Fisherbrand™ semimicro quartz cells (Fisher Scientific). Fluorescence measurements were recorded with an Aminco-Bowman® Series 2 Spectrometer using quartz fluorimeter cuvets from Sigma. pH measurements were done using a Mettler Toledo MP 255 pH meter.
The buffered solutions used in fluorescence/Mg^2+ titration experiments contained 120 mM KCl, 20 mM NaCl, and 15 mM TRIS buffer, and were brought to pH=7.2 with concentrated HCl. A stock solution of 2 mg of the indicator in 5 ml buffer was prepared. To record a UV spectrum, the stock solutions were diluted 40 times (25 μl in 975 μl). For the fluorescence titration experiments, 25 μl of the stock solution was diluted 100 times with 2475 μl buffer. Emission fluorescence and excitation fluorescence spectra were recorded using the appropriate excitation wavelength derived from the UV spectrum of the free indicator. To 2475 μl of a MgCl2 solution (100 mM, 250 mM or 500 mM (2a)), 25 μl of the stock solution of the indicator was added, to cancel out dilution during the titration. To the solution of the free indicator, increasing amounts of the MgCl2/indicator solution were added. After each titration step, fluorescence emission and fluorescence excitation spectra were recorded.

[2] = fluorescence/pH titration to determine pKa; type: physicochemical; details: 10 mM MOPS buffer, from pH 4.29, read-out: pKa of the carboxylate group on the ring system
Description: However, it is not intended that the present invention be so limited nor is it necessary to understand the mechanism in order to practice the present invention. Thus, the indicators are present in the deprotonated form and available for complexation at physiological pH.
To determine the pKa of 1-bromo-8-(1,2-dicarboxyethyl)-4-oxo-4H-quinolizine-3-carboxylic acid (21a), 250 μl of the stock solution of 1-bromo-8-(1,2-dicarboxyethyl)-4-oxo-4H-quinolizine-3-carboxylic acid was added to 25 ml of 10 mM MOPS, pH 4.29. The fluorescence emission spectrum was recorded. A 0.1 M NaOH solution containing an equal concentration of 1-bromo-8-(1,2-dicarboxyethyl)-4-oxo-4H-quinolizine-3-carboxylic acid (21a), was added dropwise. After each pH increase of 0.2, the emission spectrum was recorded. At pH 6.31, no change of the fluorescence emission was observed.

[3] = fluorescent response to increasing Ca2+ concentrations; type: binding; details: for fluorescent response to increasing Ca^2+ concentrations: Ca^2+ up to 100 mM

Row | Compound | A, absorption maximum of the free indicator [1] | melting point | also measured
1 | O=C(O)CC(C(=O)O)c1ccn2c(=O)c(C(=O)O)cc(Br)c2c1 (stereo not drawn) [Compound 21a, 1-bromo-8-(1,2-dicarboxyethyl)-4-oxo-4H-quinolizine-3-carboxylic acid] | 407 nm | > 250 °C | pKa [2]: 5.6; fluorescent response to increasing Ca^2+ concentrations [3]: no fluorescent response
2 | COc1ccc(-c2ccn3c(=O)c(C(=O)O)ccc3c2)cc1 [Compound 22a, 8-(4-methoxyphenyl)-4-oxo-4H-quinolizine-3-carboxylic acid] | 406 nm | > 250 °C | –
3 | O=C(O)c1cc(Br)c2ccccn2c1=O [Compound 9a, 1-bromo-4-oxo-4H-quinolizine-3-carboxylic acid] | 403 nm | > 250 °C | fluorescent response to increasing Ca^2+ concentrations [3]: no fluorescent response
4 | O=C(O)CC(C(=O)O)c1ccn2c(=O)c(C(=O)O)ccc2c1 (stereo not drawn) [Compound 20a, 8-(1,2-dicarboxyethyl)-4-oxo-4H-quinolizine-3-carboxylic acid] | 390 nm | – | –
5 | O=C(O)C(=Cc1cc(C(=O)O)c(=O)n2ccccc12)C(=O)O [Compound 12a, 1-(2,2-dicarboxyvinyl)-4-oxo-4H-quinolizine-3-carboxylic acid] | 400 nm | – | –
6 | O=C(O)c1cc(CC(C(=O)O)C(=O)O)c2ccccn2c1=O [Compound 13a, 1-(2,2-dicarboxyethyl)-4-oxo-4H-quinolizine-3-carboxylic acid] | 395 nm | – | –
7 | O=C(O)c1ccc2cc(-c3cccc4ccccc34)ccn2c1=O [Compound 23a, 8-(naphth-1-yl)-4-oxo-4H-quinolizine-3-carboxylic acid] | 386 nm | 245 to 247 °C | –
8 | O=C(O)c1ccc2ccccn2c1=O [Compound 1a, 4-oxo-4H-quinolizine-3-carboxylic acid] | 385 nm | – | effect of Ca^2+ on the fluorescence emission ([3]; Ca^2+ levels in the nanomolar to submicromolar range): do not affect the fluorescence emission

Now from value to compound, other results behind:

Row | A, absorption maximum of the free indicator [1] | melting point | Compound | also measured
9 | 380 nm | – | O=C(O)Cc1ccn2c(=O)c(C(=O)O)ccc2c1 [Compound 19a, 8-(carboxymethyl)-4-oxo-4H-quinolizine-3-carboxylic acid] | –
10 | 440 nm | – | O=C(O)c1ccc2cc(-c3cc4ccccc4o3)ccn2c1=O [Compound 24a, 8-benzo[b]furyl-4-oxo-4H-quinolizine-3-carboxylic acid] | –
11 | 410 nm | – | 1-[N,N-di(carboxymethyl)]-4-oxo-4H-quinolizine-3-carboxylic acid [Compound 11a] | –
12 | 385 nm | – | Nc1ccn2c(=O)c(C(=O)O)ccc2c1 [Compound 15a, 8-amino-4-oxo-4H-quinolizine-3-carboxylic acid] | –
13 | 370 nm | – | 8-[3-(N,N-di(carboxymethyl)phenoxy]-4-oxo-4H-quinolizine-3-carboxylic acid [Compound 18a] | –
14 | 410 nm | – | O=C(O)c1ccc2ccc3ccccc3n2c1=O [Compound 3a, [6,7]benzo-4-oxo-4H-quinolizine-3-carboxylic acid] | –
15 | 391 nm | > 250 °C | O=C(O)c1ccc2cc(Cl)ccn2c1=O [Compound 2a, 4-oxo-8-chloro-4H-quinolizine-3-carboxylic acid] | –
